As usually defined, the pIC50 is the IC50 on a negative log10 scale, so that one unit is a factor of ten.

pIC50: −log10 of the molar value. Values after ≈ are worked out from the molar mass of the structure shown. Where two headings read alike, the source gives them in different places. Numbered stars: 1 amine (or outer) side, 2 acyl side, 3 side chain; on linkers, the order of the positions; unused ones are H or OH. Bridge positions count the residues as written; N and C are the ends. Side chains are listed from the residue outwards. Peptide text beside a SMILES is read from it. * marks the point of attachment. C20 diacid = O=C(O)CCCCCCCCCCCCCCCCCCC(=O)*; γGlu = O=C(O)[C@H](CCC(=O)[*:2])N[*:1]; AEEA = NCCOCCOCC(=O)O

Consider four compounds from patent publication US9023789B2, “Amylin analogs and pharmaceutical compositions thereof” (Novo Nordisk A/S, priority 2012, dated 2015).

Series [1] can be described thus: ASSAY (III) ThT fibrillation assay for physical stability. Format: physicochemical. The essentials:
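Physical stability scored by ThT fluorescence (444 nm excitation, 485 nm emission) tracked every 20 min during 37 °C incubation with 960 rpm shaking, ThT at 1 μM final. Values are replicate means with SD at chosen times; HPLC against pramlintide standard gives initial and post-assay soluble concentrations.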

The target of series [2] is T1, rat amylin receptor (rat calcitonin receptor + rat RAMP 3) (Rattus norvegicus, UniProt P32214+Q9JJ73).
T1 construct: expressed in transfected cells; host or cells: BHK tk'ts 13 (transient, FuGENE 6), membranes
T1 sequence (P32214 25-479 isoform P32214-2 limits assumed): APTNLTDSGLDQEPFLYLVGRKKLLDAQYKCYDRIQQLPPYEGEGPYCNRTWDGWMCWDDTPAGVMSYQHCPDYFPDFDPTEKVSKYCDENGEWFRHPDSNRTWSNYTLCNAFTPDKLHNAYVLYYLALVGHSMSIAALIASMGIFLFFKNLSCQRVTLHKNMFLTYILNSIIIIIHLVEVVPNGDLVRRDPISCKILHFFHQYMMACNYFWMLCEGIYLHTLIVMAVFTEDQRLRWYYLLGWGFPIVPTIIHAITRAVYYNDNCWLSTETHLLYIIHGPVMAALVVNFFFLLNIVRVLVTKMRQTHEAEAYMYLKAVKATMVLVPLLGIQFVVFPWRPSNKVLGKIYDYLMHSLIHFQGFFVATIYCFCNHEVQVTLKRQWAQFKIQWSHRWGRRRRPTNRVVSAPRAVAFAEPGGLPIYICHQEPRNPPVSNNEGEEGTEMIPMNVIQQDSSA
T1 sequence (Q9JJ73 23-147 partner): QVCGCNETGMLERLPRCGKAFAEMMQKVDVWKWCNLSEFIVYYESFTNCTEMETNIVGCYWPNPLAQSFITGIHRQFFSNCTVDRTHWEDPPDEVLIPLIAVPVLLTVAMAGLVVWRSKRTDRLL
The series is described as follows: ASSAY (VI) binding to the rat amylin receptor. Conditions: for pIC50: binding to rat amylin receptor, read-out: rAmylin-R bind IC50. Summed up: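 The cell-membrane assay assessed binding at the rat amylin receptor. BHK tk′ts 13 cells were transfected transiently with rat calcitonin receptor, with FuGENE® 6 (Roche) as the transfection reagent, used per the manufacturer's recommendations. Approximately 48 hours after transfection the cells were harvested, and membranes were prepared for measuring binding.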

Series [3] can be described thus: ASSAY (IV) determination of solubility. The format is physicochemical. Summed up:
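UPLC read-out of polypeptide concentration after centrifugation. Samples: aqueous polypeptide stock ([…]) + 100 mM buffer 1:1, glycylglycine pH 3.0–5.0 or bistrispropane pH 6.0–8.0; 18 h, RT.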

Setting [4] is: Table 7, rat binding selectivity, rCTR IC50 / rAmylin-R IC50.
Setting [5] is: Table 7a (preferred compounds), rat binding selectivity, rCTR IC50 / rAmylin-R IC50.
Where [6] appears, read: ratio of rCTR bind IC50 to rAmylin-R bind IC50.
[7] abbreviates: bistrispropane buffer, pH 6.5, read-out: Solubility pH 6.5 Concentration.
[8] abbreviates: bistrispropane buffer, pH 7.5, read-out: Solubility pH 7.5 Concentration.
Setting [9] is: bistrispropane buffer, pH 6.0, read-out: Solubility pH 6.0 Concentration.
The mark [10] stands for this setting: bistrispropane buffer, pH 7.0, read-out: Solubility pH 7.0 Concentration.
The mark [11] stands for this setting: bistrispropane buffer, pH 8.0, read-out: Solubility pH 8.0 Concentration.
Setting [12] is: glycylglycine buffer, pH 3.0, read-out: Solubility pH 3.0 Concentration.
The mark [13] stands for this setting: glycylglycine buffer, pH 4.0, read-out: Solubility pH 4.0 Concentration.
[14] abbreviates: glycylglycine buffer, pH 5.0, read-out: Solubility pH 5.0 Concentration.

Turning to `CC[C@H](C)[C@H](NC(=O)[C@H](C)NC(=O)CNC(=O)[C@H](Cc1ccccc1)NC(=O)[C@H](CC(N)=O)NC(=O)[C@@H]1CCCN1C(=O)[C@H](CO)NC(=O)[C@H](CO)NC(=O)[C@H](Cc1c[nH]cn1)NC(=O)[C@H](CCCNC(=N)N)NC(=O)[C@H](CC(C)C)NC(=O)[C@H](Cc1ccccc1)NC(=O)[C@H](Cc1c[nH]cn1)NC(=O)[C@H](C)NC(=O)[C@H](CC(C)C)NC(=O)[C@H](CCCNC(=N)N)NC(=O)[C@H](CCC(N)=O)NC(=O)[C@@H](NC(=O)[C@H](C)NC(=O)[C@@H]1CSSC[C@H](NC(=O)[C@@H](N)CCCCNC(=O)CC[C@H](NC(=O)CCCCCCCCCCCCCCCCCCC(=O)O)C(=O)O)C(=O)N[C@@H](CC(N)=O)C(=O)N[C@@H]([C@@H](C)O)C(=O)N[C@@H](C)C(=O)N[C@@H]([C@@H](C)O)C(=O)N1)[C@@H](C)O)C(=O)N1CCC[C@H]1C(=O)N[C@@H](CO)C(=O)N[C@@H](CO)C(=O)N[C@H](C(=O)N[C@@H](CC(N)=O)C(=O)N[C@H](C(=O)NCC(=O)N[C@@H](Cc1c[nH]cn1)C(=O)N[C@@H](CC(N)=O)C(=O)N[C@H](C(=O)N[C@@H](Cc1ccc(O)cc1)C(N)=O)[C@@H](C)O)C(C)C)[C@@H](C)O` [Example 81] (H-K([γGlu-C20 diacid])CNTATCATQRLAHFLRHSSPNFGAIPSSTNVGHNTY-NH2; disulfide 2-7; N-terminus assumed), in series [1], the “ThT pH 4.0 lag time (h)” value is listed as 45 h. The pIC50 in series [2] (Table 7) was 8.85. The “Ratio rCT/rAmylin binding” value in series [2] (setting [4]), in series [2] (setting [5]) and in series [2] (setting [6]) was 42.9 each time. Moreover, the solubility at 18 h in series [3] (setting [7]), in series [3] (setting [8]), in series [3] (setting [9]), in series [3] (setting [10]), in series [3] (setting [11]) and in series [3] (setting [12]) was at least 200 µM each time. Also, the solubility at 18 h in series [3] (setting [13]) and in series [3] (setting [14]) was at least 200 µM in each case.

As to `CC[C@H](C)[C@H](NC(=O)[C@H](C)NC(=O)CNC(=O)[C@H](Cc1ccccc1)NC(=O)[C@H](CC(N)=O)NC(=O)[C@@H]1CCCN1C(=O)[C@H](CO)NC(=O)[C@H](CO)NC(=O)[C@H](Cc1c[nH]cn1)NC(=O)[C@H](CCCNC(=N)N)NC(=O)[C@H](CC(C)C)NC(=O)[C@H](Cc1ccccc1)NC(=O)[C@H](Cc1c[nH]cn1)NC(=O)[C@H](C)NC(=O)[C@H](CC(C)C)NC(=O)[C@H](CCCNC(=N)N)NC(=O)[C@H](CCC(N)=O)NC(=O)[C@@H](NC(=O)[C@H](C)NC(=O)[C@@H]1CSSC[C@H](NC(=O)[C@@H](N)CCCCNC(=O)COCCOCCNC(=O)CC[C@H](NC(=O)CCCCCCCCCCCCCCCCCCC(=O)O)C(=O)O)C(=O)N[C@@H](CC(N)=O)C(=O)N[C@@H]([C@@H](C)O)C(=O)N[C@@H](C)C(=O)N[C@@H]([C@@H](C)O)C(=O)N1)[C@@H](C)O)C(=O)N1CCC[C@H]1C(=O)N[C@@H](CO)C(=O)N[C@@H](CO)C(=O)N[C@H](C(=O)N[C@@H](CC(N)=O)C(=O)N[C@H](C(=O)NCC(=O)N[C@@H](CCCNC(=N)N)C(=O)N[C@@H](CC(N)=O)C(=O)N[C@H](C(=O)N[C@@H](Cc1ccc(O)cc1)C(N)=O)[C@@H](C)O)C(C)C)[C@@H](C)O` [Example 84] (H-K([AEEA-γGlu-C20 diacid])CNTATCATQRLAHFLRHSSPNFGAIPSSTNVGRNTY-NH2; disulfide 2-7 (inferred); N-terminus assumed), the “ThT pH 4.0 lag time (h)” value in series [1] is listed as 45 h. In series [2] (Table 7), the pIC50 is 8.30. In addition, the “Ratio rCT/rAmylin binding” value in series [2] (setting [4]), in series [2] (setting [5]) and in series [2] (setting [6]) was 94.3 in each case. The solubility at 18 h in series [3] (setting [7]), in series [3] (setting [8]), in series [3] (setting [9]), in series [3] (setting [10]), in series [3] (setting [11]) and in series [3] (setting [12]) was at least 200 µM in each case. For the same compound, the solubility at 18 h in series [3] (setting [13]) and in series [3] (setting [14]) was at least 200 µM in each case.

With `CC[C@H](C)[C@H](NC(=O)[C@H](C)NC(=O)CNC(=O)[C@H](Cc1ccccc1)NC(=O)[C@H](CC(N)=O)NC(=O)[C@@H]1CCCN1C(=O)[C@H](CO)NC(=O)[C@H](CO)NC(=O)[C@H](Cc1c[nH]cn1)NC(=O)[C@H](CCCNC(=N)N)NC(=O)[C@H](CC(C)C)NC(=O)[C@H](Cc1ccccc1)NC(=O)[C@H](Cc1c[nH]cn1)NC(=O)[C@H](C)NC(=O)[C@H](CC(C)C)NC(=O)[C@H](CCCNC(=N)N)NC(=O)[C@H](CCC(N)=O)NC(=O)[C@@H](NC(=O)[C@H](C)NC(=O)[C@@H]1CSSC[C@H](NC(=O)[C@@H](N)CCCCNC(=O)CC[C@H](NC(=O)CCCCCCCCCCCCCCCCCCC(=O)O)C(=O)O)C(=O)N[C@@H](CC(N)=O)C(=O)N[C@@H]([C@@H](C)O)C(=O)N[C@@H](C)C(=O)N[C@@H]([C@@H](C)O)C(=O)N1)[C@@H](C)O)C(=O)N1CCC[C@H]1C(=O)N[C@@H](CO)C(=O)N[C@@H](CO)C(=O)N[C@H](C(=O)N[C@@H](CC(N)=O)C(=O)N[C@H](C(=O)NCC(=O)N[C@@H](CCCNC(=N)N)C(=O)N[C@@H](CC(N)=O)C(=O)N[C@H](C(=O)N[C@@H](Cc1ccc(O)cc1)C(N)=O)[C@@H](C)O)C(C)C)[C@@H](C)O` [Example 85] (H-K([γGlu-C20 diacid])CNTATCATQRLAHFLRHSSPNFGAIPSSTNVGRNTY-NH2; disulfide 2-7 (inferred); N-terminus assumed), the “ThT pH 4.0 lag time (h)” value in series [1] came out at 45 h. In addition, the pIC50 in series [2] (Table 7) is 8.50. In addition, the “Ratio rCT/rAmylin binding” value in series [2] (setting [4]), in series [2] (setting [5]) and in series [2] (setting [6]) was 46.5 in each case. The solubility at 18 h in series [3] (setting [7]), in series [3] (setting [8]), in series [3] (setting [9]), in series [3] (setting [10]), in series [3] (setting [11]) and in series [3] (setting [12]) was at least 200 µM each time. For the same compound, the solubility at 18 h in series [3] (setting [13]) and in series [3] (setting [14]) was at least 200 µM throughout.

`CC[C@H](C)[C@H](NC(=O)[C@H](C)NC(=O)CNC(=O)[C@H](Cc1ccccc1)NC(=O)[C@H](CC(N)=O)NC(=O)[C@@H]1CCCN1C(=O)[C@H](CO)NC(=O)[C@H](CO)NC(=O)[C@H](Cc1c[nH]cn1)NC(=O)[C@H](CCCNC(=N)N)NC(=O)[C@H](CC(C)C)NC(=O)[C@H](Cc1ccccc1)NC(=O)[C@H](CC(N)=O)NC(=O)[C@H](C)NC(=O)[C@H](CC(C)C)NC(=O)[C@H](CCCNC(=N)N)NC(=O)[C@H](CCC(N)=O)NC(=O)[C@@H](NC(=O)[C@H](C)NC(=O)[C@@H]1CSSC[C@H](NC(=O)[C@@H](N)CCCCNC(=O)CC[C@H](NC(=O)CC[C@H](NC(=O)CCCCCCCCCCCCCCCCCCC(=O)O)C(=O)O)C(=O)O)C(=O)N[C@@H](CC(N)=O)C(=O)N[C@@H]([C@@H](C)O)C(=O)N[C@@H](C)C(=O)N[C@@H]([C@@H](C)O)C(=O)N1)[C@@H](C)O)C(=O)N1CCC[C@H]1C(=O)N[C@@H](CO)C(=O)N[C@@H](CO)C(=O)N[C@H](C(=O)N[C@@H](CC(N)=O)C(=O)N[C@H](C(=O)NCC(=O)N[C@@H](Cc1c[nH]cn1)C(=O)N[C@@H](CC(N)=O)C(=O)N[C@H](C(=O)N[C@@H](Cc1ccc(O)cc1)C(N)=O)[C@@H](C)O)C(C)C)[C@@H](C)O` [Example 86] (H-K([γGlu-γGlu-C20 diacid])CNTATCATQRLANFLRHSSPNFGAIPSSTNVGHNTY-NH2; disulfide 2-7): the “ThT pH 4.0 lag time (h)” value in series [1] is reported as 32 h. In addition, the pIC50 in series [2] (Table 7) is 8.55. Besides, the “Ratio rCT/rAmylin binding” value in series [2] (setting [4]), in series [2] (setting [5]) and in series [2] (setting [6]) was 125.7 each time. In addition, the solubility at 18 h in series [3] (setting [7]) was at least 200 µM; in series [3] (setting [8]) it was 157 µM (≈ 716 µg/mL); in series [3] (setting [9]) it was at least 200 µM; in series [3] (setting [10]), at least 200 µM; in series [3] (setting [11]), at least 200 µM; in series [3] (setting [12]), at least 200 µM. The solubility at 18 h in series [3] (setting [13]) and in series [3] (setting [14]) was at least 200 µM in each case.
